Results as given in US8673578B2, “Methods of identifying antagonists of the hTAS2R46 bitter taste receptor” (Deutsches Institut für Ernahrungsforschung Potsdam-Rehbrücke, priority 2009, dated 2014).

How the values were obtained:
[1] = target: T1, hTAS2R46 (Homo sapiens, UniProt P59540); experiment: calcium imaging (FLIPR), effect on agonist-dependent hTAS2R activation; format: cell-based; conditions: presence of agonist strychnine 3 μM
T1 construct: expressed in transfected cells; host or cells: HEK293T cells stably expressing chimeric Gα16gust44, transient transfection
T1 sequence (P59540 1-309): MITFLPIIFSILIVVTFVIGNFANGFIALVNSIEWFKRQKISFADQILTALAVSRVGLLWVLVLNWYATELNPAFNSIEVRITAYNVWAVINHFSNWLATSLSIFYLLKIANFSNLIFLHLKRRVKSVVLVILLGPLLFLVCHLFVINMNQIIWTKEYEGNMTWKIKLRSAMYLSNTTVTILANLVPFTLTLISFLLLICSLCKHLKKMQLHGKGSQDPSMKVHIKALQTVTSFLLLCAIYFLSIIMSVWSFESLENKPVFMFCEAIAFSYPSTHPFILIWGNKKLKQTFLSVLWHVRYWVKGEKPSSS
Excerpt: (§1) Human TAS2R cDNAs were cloned into pcDNA5/FRT (Invitrogen, San Diego, Calif.). For adequate plasma membrane targeting, receptor cDNA was fused to the aminoterminal sequence of the rat somatostatin type 3 receptor at the aminoterminus of the recombinant protein (Bufe, B., T. Hofmann, et al. (2002) Nat Genet. 32(3): 397-401). For immunological detection, the Herpes simplex Glycoprotein D epitope was supplemented at the carboxyterminus of the recombinant protein (Bufe et al., supra). Receptor constructs were transiently transfected into HEK293T cells stably expressing the chimeric G protein subunit Gα16gust44 (Ueda, T., S. Ugawa, et al. (2003) J Neurosci 23(19): 7376-80) using Lipofectamine 2000 (Invitrogen, San Diego, Calif.) in 96-well plates.
(§2) Calcium Imaging experiments were performed 24 h after transfection using a Fluorometric Imaging Plate Reader (FLIPR, Molecular Devices, Munich, Germany) as previously described (Bufe et al., supra). Taste active compounds were ordered from Sigma (Sigma-Aldrich, Taufkirchen, Germany). Absinthin, 3β hydroxy dihydro costunolide and 3β hydroxy pelenolide were kindly provided by Giovanni Appendino (Novara, Italy). Test substances were directly dissolved in C1 buffer (130 mM NaCl, 10 mM Na-Hepes, 10 mM Glucose, 5 mM KCl, 2 mM CaCl2, pH 7.4) or in DMSO, respectively. DMSO stocks were further diluted in C1 buffer not exceeding a final DMSO concentration of 1% on the cells. For the investigation of antagonistic effects, test substances were premixed. Agonists were applied at concentrations corresponding to EC90, except where indicated otherwise (Table 2). Data were collected from 3 independent experiments performed in quadruplicates and processed with SigmaPlot (SPSS, Chicago, Ill.). Fluorescence signals after application of test substances were corrected for and normalized to background fluorescence (ΔF/F═(F−F0)/F0), and baseline noise was subtracted. Calculation of dose-response curves was done by nonlinear regression using the function f(y)=((a−d)/(1+(x/EC50)^nH)+d).
To test 3β hydroxy dihydro costunolide and 3β hydroxy pelenolide for antagonistic or enhancing effects on hTAS2R activation, transfected cells were stimulated with cognate agonist bitter substances at EC90 concentrations (Table 2) without 3β hydroxy dihydro costunolide and 3β hydroxy pelenolide. The cellular responses after application of the agonist alone were set to 100%, responses obtained after coapplication of agonists and 100 μM 3β hydroxy dihydro costunolide or 100 μM 3β hydroxy pelenolide are shown relative to this value (FIG. 4).
Next we determined concentrations of half-maximal inhibition of TAS2R46. FIG. 5 illustrates the concentration-inhibition curves of TAS2R46 activated by picrotoxinin in the presence of various concentrations of 3β hydroxy dihydro costunolide or 3β hydroxy pelenolide. […] In agreement with the data described above the costunolide analog appears to be more potently inhibiting TAS2R46 than the pelenolide analog. […] As expected 3β hydroxy pelenolide has to be employed at ˜6 fold higher concentrations than 3β hydroxy dihydro costunolide to achieve 50% receptor inhibition.
Next, we established concentration-response curves for strychnine at TAS2R46 in the presence of various concentrations of 3β hydroxy dihydro costunolide.
(§3) Finally, the impact of chemical modifications on the antagonistic properties of 3β hydroxy dihydro costunolide on hTAS2R46-expressing cells was studied. Derivatives of 3β hydroxy dihydro costunolide with site-directed modifications at C3 and C11 were generated (FIG. 7A) These derivatives were tested for activation or inhibition of hTAS2R46-expressing cells in the absence or presence of the agonist strychnine (3 μM) and half-maximum effective concentrations (EC50) or half-maximal inhibitory concentrations were calculated (FIG. 7B).

[2] = target: T1, hTAS2R46; experiment: calcium imaging (FLIPR), activation of hTAS2R-transfected HEK293T-Gα16gust44 cells; format: cell-based; conditions: absence of agonist
Excerpt: as §1
as §2, with “f(y)=((a−d)/(1+(x/EC50)^nH)+d). […]” for “f(y)=((a−d)/(1+(x/EC50)^nH)+d).”
as §3

SMILES	action on hTAS2R46-expressing cells (inhibition) [1]	action on hTAS2R46-expressing cells (activation) [2]
C/C1=C\CC(=O)/C(C)=C/[C@H]2OC(=O)[C@@H](C)[C@@H]2CC1 [3keto dihydro costunolide]	antagonists	
CC(=O)O[C@H]1C/C=C(\C)CC[C@H]2[C@H](C)C(=O)O[C@@H]2/C=C/1C [3β hydroxy dihydro costunolide acetate]		agonists
C=C1C(=O)O[C@@H]2/C=C(\C)CC/C=C(\C)CC[C@@H]12 [Costunolide, reference compound]		agonist
C/C1=C\[C@H]2OC(=O)[C@@H](C)[C@@H]2CC/C(C)=C/CC1 [dihydro costunolide]		no influence on the agonistic properties
